Experiments:
[1] = system: influenza virus A/PR8/34 (H1N1); assay: microbe, parasite or virus in culture; assay type: cell-based; settings: MDCK cells, MOI = 1.0 (table footnote), 48 h post-infection, mean of n = 4, read-out: IC50: concentration required to inhibit influenza virus A/PR8/34 (H1N1) yield at 48 h post-infection by 50%
[2] = cytotoxicity in MDCK cell by MTT assay; settings: dog, MDCK cells, CC50: concentration required to reduce MDCK cell viability by 50%, mean of n = 3
MDCK cells = settings: dog, 48 h
in vitro = settings: dog, CC50: concentration required to reduce MDCK cell viability by 50%

Structure (SMILES)	IC50 [1] [µM]	CC50 at 48 h [2] [mM]	CC50 (MDCK cells) [mM]	CC50 at 48 h (in vitro) [mM]
Cc1c(O)cc(CCCCCC(C)C)oc1=O [Compound 14, VLP H]	28.8	1.45		
CCCCCCCc1cc(O)c(C)c(=O)o1 [Compound 11, VLP I]	113	2.2		
NC(=O)c1ncn([C@@H]2O[C@H](CO)[C@@H](O)[C@H]2O)n1 [Ribavirin, reference compound]	113	1.52		
CCc1c(O)cc(CCCCC(C)C)oc1=O [Compound 12, VLP P]	26.9	1.57		
Cc1c(O)cc(CCCCC(C)C)oc1=O [Compound 10, Violapyrone B]	> 200		> 1.5	> 1.4
CCC(C)CCCCc1cc(O)c(C)c(=O)o1 (stereo not shown) [Compound 13, VLP C]	107	1.62		

Reference: PMC5898002, “Overexpression of a type III PKS gene affording novel violapyrones with enhanced anti-influenza A virus activity” (Microbial Cell Factories, 2018)
